This is an account of results in patent US20260062422A1 (Halda Therapeutics OpCo, Inc., priority 2022, published 2026).

Broadly, the GI50 is the concentration that inhibits growth by half. A higher GI50 goes with lower sensitivity of the cells.

The structures appear in SMILES notation.

Test [1] in a line: Cellular growth inhibition, T-Rex 293 SC cells with doxycycline (progesterone receptor isoform B induced), Example 45. The format is cell-based. The conditions noted are these: progesterone receptor isoform B induced with 10 ng/mL doxycycline, 72 hours, CellTiter-Glo 2.0, Table 11. The procedure:
(§1) The following types of cells were prepared for this experiment: (i) a T-Rex 293 cell line having increased expression of progesterone receptor isoform B protein due to exposure to doxycycline and (ii) a T-Rex 293 cell line lacking increased expression of progesterone receptor isoform B protein. Ability of the test compounds to inhibit proliferation of the foregoing cell types was evaluated according to the procedures set forth below.
(§2) The doxycycline-inducible progesterone receptor isoform B protein expressing cell line was established using the following protocol: T-Rex 293 cells were purchased from Invitrogen (Cat #R71007) and transfected using Lipofectamine 2000 with the wild-type progesterone receptor B protein sequence cloned into the pcDNA4/TO vector. Transfected cells were selected using 400 μg/mL Zeocin (Invitrogen Cat #R25001). Following selection, single clones were raised and maintained in Dulbecco's Modified Eagle Medium (DMEM) supplemented with 10% w/w Tetracycline-free fetal bovine serum (FBS) and 250 μg/mL Zeocin. Clones were analyzed for expression of progesterone receptor isoform B protein in the presence and absence of 10 ng/mL doxycycline (Sigma Cat #D9891), and a single doxycycline-inducible clone (hereinafter “SC”) was selected for use in downstream assays.
(§3) The SC cells were seeded on poly-D-lysine coated, black clear-bottom 384-well plates at 2500/well, in 25 μL Phenol Red Free Dulbecco's Modified Eagle Medium (DMEM) supplemented with 10% w/w charcoal-dextran treated fetal bovine serum (FBS) and 1% w/w pen-strep, with or without 10 ng/mL doxycycline. Pen-Strep is a commercially available mixture of penicillin G and streptomycin, which is used in mammalian cell culture media to prevent bacterial contamination. Phenol Red Free Dulbecco's Modified Eagle Medium (DMEM) supplemented with 10% w/w charcoal-dextran treated fetal bovine serum (FBS) and 1% w/w pen-strep, with or without 10 ng/mL doxycycline is herein referred to as Treatment Medium. Following seeding of cells in the plates, the plates were spun at 300×g for 30 seconds, then equilibrated to room temperature for 30 minutes, and then deposited in a humidified tissue culture incubator maintained at 37° C. with 5% CO2.
(§4) At 24 hours after seeding of the cells, dilutions of test compound were prepared in DMSO and dissolved in Treatment Medium, to achieve a final DMSO concentration of 0.5% w/w, thereby providing the Test Compound Solution. A 25 μL aliquot of the Test Compound Solution was added to cells in the well plates. An equal volume of a solution containing DMSO and Treatment Medium was used as a negative control. Following treatment of cells with Test Compound Solution or said equal volume of a solution containing DMSO and Treatment Medium, the plates were spun at 300×g for 30 seconds, and then left in an incubator for 72 hours.
(§5) At the end of the treatment duration, cell viability was quantified with CellTiter-Glo 2.0 reagent (Promega Cat #G9243). For this purpose, plates were equilibrated to room temperature for 30 minutes, and then 25 μL of CellTiter-Glo 2.0 reagent was added to cells in the plate wells. Plates were then agitated on a shaker for two minutes at 500 rpm and subsequently incubated at room temperature for 10 minutes. Following incubation, the plates were spun at 3000×g for 30 seconds, then sealed with an optical adhesive cover, and luminescence readings were measured with an EnVision Plate Reader (Perkin Elmer).
(§6) Data was normalized using zero luminescence for baseline. A four-parameter non-linear regression curve fit was applied to dose-response data in GraphPad Prism data analysis software to determine the half-maximal growth inhibitory concentration (GI50) for each test compound.
(In general: In ATP-based viability assays light output follows the ATP content of the culture.)

Test [2] deals with T-Rex 293 cell line SC cells lacking increased expression of progesterone receptor isoform B protein. The test can be described thus: Cellular growth inhibition, T-Rex 293 SC cells without doxycycline, Example 45. The format is cell-based. The conditions noted are these: T-Rex 293 SC cells not exposed to doxycycline, 72 hours treatment, CellTiter-Glo 2.0. The procedure: as §1, §2, §3, §4, §5, §6

In test [3] the test system is T47D cells. As to the kind of experiment: Cellular growth inhibition assay for T47D cells, CellTiter-Glo. In kind it is cell-based, human. To be noted: Homo sapiens, T47D, 72 h, 72 hours treatment, CellTiter-Glo 2.0 cell viability. The method in brief:
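Luminescence from CellTiter-Glo 2.0 after 72 h of compound exposure gives the viability signal. Cells grew in insulin-supplemented (0.2 units/mL) DMEM with 10% FBS and were treated one day after seeding at 0.5% DMSO. GI50 values come from four-parameter nonlinear regression.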

Turning to `Cc1sc2c(c1C)C(c1ccc(C#CCN3CCN(c4ncc(C(=O)N[C@H]5C(C)(C)[C@H](Oc6ccc(C#N)c(Cl)c6)C5(C)C)cn4)CC3)cc1)=N[C@@H](CC(=O)OC(C)(C)C)c1nnc(C)n1-2` [Compound I-55], the results for the GI50 in test [1], in test [2] and in test [3] were less than 500 nM, 500 to 1500 nM and more than 3000 nM, respectively.

As for `Cc1sc2c(c1C)C(c1ccc(C3CC3C3CC4(CCN(c5ncc(C(=O)N[C@H]6C(C)(C)[C@H](Oc7ccc(C#N)c(Cl)c7)C6(C)C)cn5)CC4)C3)cc1)=N[C@@H](Cc1ncco1)c1nnc(C)n1-2` (some centres unmarked) [Compound I-237], the values for the GI50 in test [1], in test [2] and in test [3] were less than 500 nM, more than 3000 nM and less than 500 nM, respectively.

Regarding `Cc1sc2c(c1C)C(c1ccc(OC3CC4(CCN(c5ncc(C(=O)N[C@H]6C(C)(C)[C@H](Oc7ccc(C#N)c(Cl)c7)C6(C)C)cn5)CC4)C3)cc1)=N[C@@H](Cc1ncco1)c1nnc(C)n1-2` [Compound I-49, N-[3-(3-chloro-4-cyano-phenoxy)-2,2,4,4-tetramethyl-cyclobutyl]-2-[2-[4-[(9S)-4,5,13-trimethyl-9-(oxazol-2-ylmethyl)-3-thia-1,8,11,12-tetrazatricyclo[8.3.0.02,6]trideca-2(6),4,7,10,12-pentaen-7-yl]phenoxy]-7-azaspiro[3.5]nonan-7-yl]pyrimidine-5-carboxamide], the concentration for 50% growth inhibition (GI50) is less than 500 nM in test [1], 500 to 1500 nM in test [2] and less than 500 nM in test [3].

With `CCNC(=O)C[C@@H]1N=C(c2ccc(Oc3ncc(C(=O)N[C@H]4C(C)(C)[C@H](Oc5ccc(C#N)c(Cl)c5)C4(C)C)cn3)cc2)c2c(sc(C)c2C)-n2c(C)nnc21` [Compound I-84], the GI50 in test [1] is less than 500 nM; in test [2], 500 to 1500 nM; in test [3], 1500 to 3000 nM.

`CCNC(=O)C[C@@H]1N=C(c2ccc(N(C)C3CC(OC4CCN(c5ncc(C(=O)N[C@H]6C(C)(C)[C@H](Oc7ccc(C#N)c(Cl)c7)C6(C)C)cn5)CC4)C3)cc2)c2c(sc(C)c2C)-n2c(C)nnc21` (some centres unmarked) [Compound I-130]: the figures for the GI50 in test [1], in test [2] and in test [3] were less than 500 nM, less than 500 nM and 500 to 1500 nM, respectively.

On to `CCNC(=O)C[C@@H]1N=C(c2ccc(C#CCN3CCN(c4ncc(C(=O)N[C@H]5C(C)(C)[C@H](Oc6ccc(C#N)c(Cl)c6)C5(C)C)cn4)CC3)cc2)c2c(sc(C)c2C)-n2c(C)nnc21` [Compound I-54, N-[3-(3-chloro-4-cyano-phenoxy)-2,2,4,4-tetramethyl-cyclobutyl]-2-[4-[3-[4-[(9S)-9-[2-(ethylamino)-2-oxo-ethyl]-4,5,13-trimethyl-3-thia-1,8,11,12-tetrazatricyclo[8.3.0.02,6]trideca-2(6),4,7,10,12-pentaen-7-yl]phenyl]prop-2-ynyl]piperazin-1-yl]pyrimidine-5-carboxamide], for which the concentration for 50% growth inhibition (GI50) in test [1] is less than 500 nM; in test [2], less than 500 nM; in test [3], 500 to 1500 nM.

With `Cc1sc2c(c1C)C(c1ccc(OC3CN(CC4CCN(c5ncc(C(=O)N[C@H]6C(C)(C)[C@H](Oc7ccc(C#N)c(Cl)c7)C6(C)C)cn5)CC4)C3)cc1)=N[C@H](Cc1ncco1)c1nnc(C)n1-2` [Compound I-169], the GI50 in test [1], in test [2] and in test [3] was less than 500 nM throughout.

As to `CCNC(=O)C[C@@H]1N=C(c2cccc(OCCOC3CCN(c4ncc(C(=O)N[C@H]5C(C)(C)[C@H](Oc6ccc(C#N)c(Cl)c6)C5(C)C)cn4)CC3)c2)c2c(sc(C)c2C)-n2c(C)nnc21` [Compound I-46, N-((1r,3r)-3-(3-chloro-4-cyanophenoxy)-2,2,4,4-tetramethylcyclobutyl)-2-(4-(2-(3-((S)-6-(2-(ethylamino)-2-oxoethyl)-2,3,9-trimethyl-6H-thieno[3,2-f][1,2,4]triazolo[4,3-a][1,4]diazepin-4-yl)phenoxy)ethoxy)piperidin-1-yl)pyrimidine-5-carboxamide], the GI50 in test [1] was less than 500 nM; in test [2], 500 to 1500 nM; in test [3], 500 to 1500 nM.

With `Cc1sc2c(c1C)C(c1ccc(Cl)cc1)=N[C@@H](CC(=O)NCCOCCOCCOCCOCCOCCOCCN(C)c1ncc(C(=O)N[C@H]3C(C)(C)[C@H](Oc4ccc(C#N)c(Cl)c4)C3(C)C)cn1)c1nnc(C)n1-2` [Compound I-4], the GI50 was less than 500 nM in test [1] and 1500 to 3000 nM in test [2].

Take `Cc1sc2c(c1C)C(c1ccc(N3CC(C4CCN(c5ncc(C(=O)N[C@H]6C(C)(C)[C@H](Oc7ccc(C#N)c(Cl)c7)C6(C)C)cn5)CC4)C3)cc1)=N[C@@H](C)c1nnc(C)n1-2` [Compound I-271]: the GI50 in test [1] was less than 500 nM; in test [2] it was 500 to 1500 nM; in test [3], 500 to 1500 nM.

For the compound `Cc1sc2c(c1C)C(c1ccc(OC3CC4(C3)CC3(CCN(c5ncc(C(=O)N[C@H]6C(C)(C)[C@H](Oc7ccc(C#N)c(Cl)c7)C6(C)C)cn5)CC3)C4)cc1)=N[C@@H](Cc1ncco1)c1nnc(C)n1-2` [Compound I-283], the GI50 in test [1] was less than 500 nM; in test [2], more than 3000 nM; in test [3], less than 500 nM.

In the case of `Cc1sc2c(c1C)C(c1ccc(CCC3CC4(CCCN(c5ncc(C(=O)N[C@H]6C(C)(C)[C@H](Oc7ccc(C#N)c(Cl)c7)C6(C)C)cn5)C4)C3)cc1)=N[C@@H](Cc1ncco1)c1nnc(C)n1-2` [Compound I-241], the results for the GI50 in test [1], in test [2] and in test [3] were less than 500 nM, 500 to 1500 nM and less than 500 nM, respectively.

For `Cc1sc2c(c1C)C(c1cccc(OCCOC3CCN(c4ncc(C(=O)N[C@H]5C(C)(C)[C@H](Oc6ccc(C#N)c(Cl)c6)C5(C)C)cn4)CC3)c1)=N[C@@H](CC(=O)O)c1nnc(C)n1-2` [Compound I-41], the GI50 in test [1] was more than 3000 nM; in test [2] it was more than 3000 nM; in test [3], 1500 to 3000 nM.

Take `CCNC(=O)C[C@@H]1N=C(c2ccc(N(C3CC3)C3CN(CC4CCN(c5ncc(C(=O)N[C@H]6C(C)(C)[C@H](Oc7ccc(C#N)c(Cl)c7)C6(C)C)cn5)CC4)C3)cc2)c2c(sc(C)c2C)-n2c(C)nnc21` [Compound I-129]: the GI50 in test [1] was less than 500 nM; in test [2], 500 to 1500 nM; in test [3] it was 500 to 1500 nM.

As to `Cc1sc2c(c1C)C(c1ccc(Cl)cc1)=N[C@H](CC(=O)NCCOCCOCCOCCOCCOC1CCN(c3ncc(C(=O)N[C@H]4C(C)(C)[C@H](Oc5ccc(C#N)c(Cl)c5)C4(C)C)cn3)CC1)c1nnc(C)n1-2` [Compound I-14], the GI50 in test [1] lay within 500 to 1500 nM; in test [2] it was 1500 to 3000 nM; in test [3] it was 500 to 1500 nM.

Take `Cc1sc2c(c1C)C(c1ccc(C[C@H]3C[C@@H]([C@@H]4CCCN(c5ncc(C(=O)N[C@H]6C(C)(C)[C@H](Oc7ccc(C#N)c(Cl)c7)C6(C)C)cn5)C4)C3)cc1)=N[C@@H](Cc1ncco1)c1nnc(C)n1-2` [Compound I-161]: the results for the GI50 in test [1], in test [2] and in test [3] were less than 500 nM, more than 3000 nM and less than 500 nM, respectively.

Take `Cc1sc2c(c1C)C(c1ccc(CC3CN(CC4CCN(c5ncc(C(=O)N[C@H]6C(C)(C)[C@H](Oc7ccc(C#N)c(Cl)c7)C6(C)C)cn5)CC4)C3)cc1)=N[C@@H](Cc1ncco1)c1nnc(C)n1-2` [Compound I-153]: the GI50 in test [1], in test [2] and in test [3] was less than 500 nM in each case.

For the compound `Cc1sc2c(c1C)C(c1ccc(N3CC(CC4CCN(c5ncc(C(=O)N[C@H]6C(C)(C)[C@H](Oc7ccc(C#N)c(Cl)c7)C6(C)C)cn5)CC4)C3)cc1)=N[C@@H](C)c1nnc(C)n1-2` [Compound I-270], the values for the GI50 in test [1], in test [2] and in test [3] were less than 500 nM, 500 to 1500 nM and less than 500 nM, respectively.
